In ChEMBL document CHEMBL5252536, “Discovery of VU0467485/AZ13713945: An M4 PAM Evaluated as a Preclinical Candidate for the Treatment of Schizophrenia” (ACS Med Chem Lett, 2017):

Columns and labels:
[1] = molecular target: Voltage-gated inwardly rectifying potassium channel KCNH2 (Homo sapiens, UniProt Q12809); test: Inhibition of hERG cardiac ion channel; format: toxicity
[2] = Positive allosteric modulator activity at dog M4 receptor expressed in CHO cells co-expressing Gqi5 in presence of EC20 concentration of acetylcholine by calcium mobilization assay; format: cell-based
[3] = Positive allosteric modulator activity at dog M2 receptor expressed in CHO cells co-expressing Gqi5 assessed as maximal response to ACh by calcium mobilization assay; format: cell-based
Cytochrome P450 2C9 [4] = molecular target: T1, Cytochrome P450 2C9 (Homo sapiens, UniProt P11712); test: […] of human CYP2C9 mediated drug metabolism incubated for 5 mins followed by NADPH addition measured after 1 hr by LC-UV/MS analysis relative to control; format: ADME; conditions: recombinant enzyme, 1.083 h, time 65 min
T1 sequence (P11712 whole entry): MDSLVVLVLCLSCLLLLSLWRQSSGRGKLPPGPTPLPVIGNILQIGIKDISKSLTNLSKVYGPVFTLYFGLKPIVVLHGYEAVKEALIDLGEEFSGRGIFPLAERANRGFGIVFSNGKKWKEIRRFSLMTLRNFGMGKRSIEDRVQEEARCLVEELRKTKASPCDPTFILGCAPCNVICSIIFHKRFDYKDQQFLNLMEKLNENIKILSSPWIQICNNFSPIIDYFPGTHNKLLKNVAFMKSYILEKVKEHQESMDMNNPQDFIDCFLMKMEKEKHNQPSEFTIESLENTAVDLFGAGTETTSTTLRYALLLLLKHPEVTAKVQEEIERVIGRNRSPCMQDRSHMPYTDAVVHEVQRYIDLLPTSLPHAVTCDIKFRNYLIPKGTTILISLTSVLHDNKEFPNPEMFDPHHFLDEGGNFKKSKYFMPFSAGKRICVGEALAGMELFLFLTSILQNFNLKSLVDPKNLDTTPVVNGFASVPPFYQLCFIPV

[5] = Elimination half life in Beagle dog at 3 mg/kg,po or 1 mg/kg,iv by LC-MS/MS analysis; format: ADME, organism-based, Canis lupus familiaris; conditions: in vivo, read-out: beta t1/2 (converted)
Rattus norvegicus [6] = test: Antipsychotic activity in amphetamine-induced hyperlocomotion activity in rat assessed as minimum effective dose at 1 administered orally preincubated for 30 mins followed by amphetamine addition and measured after 60 mins by open field test; format: functional; conditions: 1.5 h, route po, time 90 min, read-out: MED
Cytochrome P450 2D6 = Cytochrome P450 2D6 (Homo sapiens, UniProt P10635); test: Inhibition of CYP2D6 in human liver microsomes using dextromethorphan as substrate incubated for 15 mins in presence of NADPH by LC/MS/MS analysis; format: ADME, Microsome
Sequence of Cytochrome P450 2D6 (P10635 whole entry): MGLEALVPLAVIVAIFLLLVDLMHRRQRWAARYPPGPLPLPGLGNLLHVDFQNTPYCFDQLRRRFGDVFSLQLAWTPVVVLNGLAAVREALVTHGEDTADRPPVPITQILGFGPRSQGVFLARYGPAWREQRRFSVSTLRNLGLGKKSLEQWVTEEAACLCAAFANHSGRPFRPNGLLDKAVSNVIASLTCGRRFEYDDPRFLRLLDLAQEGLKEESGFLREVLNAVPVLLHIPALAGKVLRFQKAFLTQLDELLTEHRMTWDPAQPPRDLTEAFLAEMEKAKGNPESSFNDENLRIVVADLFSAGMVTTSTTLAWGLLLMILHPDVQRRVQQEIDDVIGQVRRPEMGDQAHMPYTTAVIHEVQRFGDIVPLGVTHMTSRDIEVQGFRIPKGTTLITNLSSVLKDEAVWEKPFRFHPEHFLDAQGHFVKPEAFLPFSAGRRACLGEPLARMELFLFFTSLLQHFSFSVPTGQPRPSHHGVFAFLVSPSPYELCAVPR

[7] = Plasma protein binding in rat assessed as unbound fraction incubated for 4 hrs by LC/MS/MS analysis; format: ADME, cell-free
[8] = Ratio of drug concentration in Beagle dog brain to plasma at 3 mg/kg, po by LC-MS/MS analysis; format: ADME, organism-based, Canis lupus familiaris; conditions: read-out: BPR
Cytochrome P450 2B6 = molecular target: T2, Cytochrome P450 2B6 (Homo sapiens, UniProt P20813); test: Activation of CYP2B6 in human hepatocyte using bupropion as substrate preincubated for 5 days followed by substrate addition and measured after 1 hr by LC-MS/MS analysis; format: ADME, cell-based
T2 sequence (P20813 whole entry): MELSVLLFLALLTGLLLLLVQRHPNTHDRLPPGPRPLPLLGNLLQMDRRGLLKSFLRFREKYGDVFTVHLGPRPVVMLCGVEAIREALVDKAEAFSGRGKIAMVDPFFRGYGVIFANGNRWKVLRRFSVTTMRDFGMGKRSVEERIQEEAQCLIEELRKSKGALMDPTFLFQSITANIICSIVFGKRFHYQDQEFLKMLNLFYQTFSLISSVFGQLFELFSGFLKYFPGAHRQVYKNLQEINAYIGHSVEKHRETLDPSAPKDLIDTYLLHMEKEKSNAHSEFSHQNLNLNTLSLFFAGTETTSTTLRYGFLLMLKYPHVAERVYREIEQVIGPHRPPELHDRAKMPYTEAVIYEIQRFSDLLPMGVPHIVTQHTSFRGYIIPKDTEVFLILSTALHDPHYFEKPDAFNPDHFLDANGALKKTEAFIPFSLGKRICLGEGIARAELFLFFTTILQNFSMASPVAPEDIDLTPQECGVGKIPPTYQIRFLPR

[9] = molecular target: T3, Muscarinic acetylcholine receptor M2 (Homo sapiens, UniProt P08172); test: Positive allosteric modulator activity at human M2 receptor expressed in CHO cells co-expressing Gqi5 assessed as maximal response to ACh by calcium mobilization assay; format: cell-based
T3 sequence (P08172 whole entry): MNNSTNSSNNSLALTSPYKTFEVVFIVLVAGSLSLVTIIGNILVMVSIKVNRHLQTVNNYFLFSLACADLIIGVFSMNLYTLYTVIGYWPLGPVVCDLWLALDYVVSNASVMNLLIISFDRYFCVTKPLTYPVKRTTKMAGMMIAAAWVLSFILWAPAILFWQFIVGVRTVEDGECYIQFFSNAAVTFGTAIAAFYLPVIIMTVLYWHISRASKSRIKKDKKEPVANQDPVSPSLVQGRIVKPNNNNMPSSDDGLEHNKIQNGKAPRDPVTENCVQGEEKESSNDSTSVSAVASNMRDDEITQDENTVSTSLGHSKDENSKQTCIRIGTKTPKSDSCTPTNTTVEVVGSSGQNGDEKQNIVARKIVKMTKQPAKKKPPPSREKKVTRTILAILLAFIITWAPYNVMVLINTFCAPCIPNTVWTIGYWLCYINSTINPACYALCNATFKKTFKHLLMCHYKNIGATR

Rattus norvegicus [10] = test: Reversal of MK-801-induced hyperlocomotion activity in rat at 10 to 30 mg/kg,po preincubated for 30 mins followed by MK-801 addition and measured after 60 mins by open field test relative to control; format: functional; conditions: dose 10-30 mg/kg, time 90 min, 1.5 h
[11] = Clearance in Cynomolgous monkey plasma at 0.2 mg/kg,iv by LC-MS/MS analysis; conditions: cynomolgus monkey
[12] = Toxicity in rat assessed as effect on autonomical parameters at 56.6 mg/kg, po measured after 6 hrs by Irwin test; format: organism-based; conditions: in vivo
[13] = Apparent permeability across apical to basolateral side in human Caco-2 cells; format: ADME, cell-based
[14] = molecular target: GABA-A receptor; anion channel; test: Inhibition of rat GABAA receptor; format: protein-complex assay
[15] = Genotoxicity in Salmonella typhimurium TA100 by Ames test; format: toxicity; conditions: salmonella enterica subsp. enterica serovar typhimurium
Cytochrome P450 2C19 = Cytochrome P450 2C19 (Homo sapiens, UniProt P33261); test: […] of human CYP2C19 mediated drug metabolism incubated for 5 mins followed by NADPH addition measured after 1 hr by LC-UV/MS analysis relative to control; format: ADME; conditions: recombinant enzyme, 1.083 h, time 65 min
Sequence of Cytochrome P450 2C19 (P33261 whole entry): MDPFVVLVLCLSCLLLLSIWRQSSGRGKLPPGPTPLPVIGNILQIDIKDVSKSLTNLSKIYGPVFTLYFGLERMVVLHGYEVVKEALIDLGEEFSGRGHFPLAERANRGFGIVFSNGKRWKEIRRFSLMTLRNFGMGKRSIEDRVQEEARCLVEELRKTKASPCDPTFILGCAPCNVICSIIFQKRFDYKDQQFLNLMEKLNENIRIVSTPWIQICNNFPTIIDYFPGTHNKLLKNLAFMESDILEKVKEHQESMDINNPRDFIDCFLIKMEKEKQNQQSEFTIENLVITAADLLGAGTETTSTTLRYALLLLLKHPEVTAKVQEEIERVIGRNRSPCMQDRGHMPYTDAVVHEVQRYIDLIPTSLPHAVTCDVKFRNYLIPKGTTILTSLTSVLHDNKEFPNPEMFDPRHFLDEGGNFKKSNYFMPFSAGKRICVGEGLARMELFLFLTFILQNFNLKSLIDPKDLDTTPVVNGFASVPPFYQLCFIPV

[16] = Tmax in Beagle dog at 3 mg/kg,po by LC-MS/MS analysis; format: ADME, organism-based, Canis lupus familiaris; conditions: in vivo
[17] = Positive allosteric modulator activity at cynomolgus monkey M4 receptor expressed in CHO cells co-expressing Gqi5 in presence of EC20 concentration of acetylcholine by calcium mobilization assay; format: cell-based; conditions: Macaca fascicularis
Cytochrome P450 3A4 [18] = molecular target: T4, Cytochrome P450 3A4 (Homo sapiens, UniProt P08684); test: Activation of CYP34A in human hepatocyte using midazolam as substrate preincubated for 5 days followed by substrate addition and measured after 1 hr by LC-MS/MS analysis; format: ADME, cell-based
T4 sequence (P08684 whole entry): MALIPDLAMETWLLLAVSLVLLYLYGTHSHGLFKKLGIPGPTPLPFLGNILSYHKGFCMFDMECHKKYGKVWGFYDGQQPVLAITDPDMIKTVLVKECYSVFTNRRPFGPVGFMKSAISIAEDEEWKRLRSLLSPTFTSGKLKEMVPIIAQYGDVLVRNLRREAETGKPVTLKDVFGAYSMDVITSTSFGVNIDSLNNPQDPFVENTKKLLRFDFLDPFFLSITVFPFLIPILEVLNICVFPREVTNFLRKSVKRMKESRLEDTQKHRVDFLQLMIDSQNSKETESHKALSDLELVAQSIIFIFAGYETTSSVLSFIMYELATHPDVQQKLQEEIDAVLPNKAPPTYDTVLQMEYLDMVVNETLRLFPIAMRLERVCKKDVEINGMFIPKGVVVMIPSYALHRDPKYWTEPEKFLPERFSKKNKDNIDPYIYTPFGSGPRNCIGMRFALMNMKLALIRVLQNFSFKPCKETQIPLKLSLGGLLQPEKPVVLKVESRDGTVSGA

[19] = Plasma protein binding in human assessed as unbound fraction incubated for 4 hrs by LC/MS/MS analysis; format: ADME, cell-free
CYP2B6 = molecular target: T5, CYP2B6 (Homo sapiens, UniProt P20813); test: Activation of CYP2B6 in human hepatocyte using bupropion as substrate preincubated for 5 days followed by substrate addition and measured after 1 hr by LC-MS/MS analysis relative to control; format: ADME, cell-based; conditions: hepatocytes, probe bupropion, time 121 hrs
T5 sequence (P20813 whole entry): T2 sequence (P20813 whole entry)

[20] = Terminal plasma concentration in rat model of amphetamine-induced hyperlocomotion activity at 1 to 10 mg/kg, po measured after 1.5 hrs; format: ADME, organism-based; conditions: dose 1-10 mg/kg
Cytochrome P450 3A4 [21] = molecular target: T4, Cytochrome P450 3A4; test: […] of human CYP3A4 mediated drug metabolism incubated for 5 mins followed by NADPH addition measured after 1 hr by LC-UV/MS analysis relative to control; format: ADME; conditions: recombinant enzyme, 1.083 h, time 65 min
Cytochrome P450 2C9 [22] = molecular target: T1, Cytochrome P450 2C9; test: Inhibition of CYP2C9 in human liver microsomes using diclofenac as substrate incubated for 15 mins in presence of NADPH by LC/MS/MS analysis; format: ADME, Microsome

Sequence of Voltage-gated inwardly rectifying potassium channel KCNH2 (Q12809 whole entry): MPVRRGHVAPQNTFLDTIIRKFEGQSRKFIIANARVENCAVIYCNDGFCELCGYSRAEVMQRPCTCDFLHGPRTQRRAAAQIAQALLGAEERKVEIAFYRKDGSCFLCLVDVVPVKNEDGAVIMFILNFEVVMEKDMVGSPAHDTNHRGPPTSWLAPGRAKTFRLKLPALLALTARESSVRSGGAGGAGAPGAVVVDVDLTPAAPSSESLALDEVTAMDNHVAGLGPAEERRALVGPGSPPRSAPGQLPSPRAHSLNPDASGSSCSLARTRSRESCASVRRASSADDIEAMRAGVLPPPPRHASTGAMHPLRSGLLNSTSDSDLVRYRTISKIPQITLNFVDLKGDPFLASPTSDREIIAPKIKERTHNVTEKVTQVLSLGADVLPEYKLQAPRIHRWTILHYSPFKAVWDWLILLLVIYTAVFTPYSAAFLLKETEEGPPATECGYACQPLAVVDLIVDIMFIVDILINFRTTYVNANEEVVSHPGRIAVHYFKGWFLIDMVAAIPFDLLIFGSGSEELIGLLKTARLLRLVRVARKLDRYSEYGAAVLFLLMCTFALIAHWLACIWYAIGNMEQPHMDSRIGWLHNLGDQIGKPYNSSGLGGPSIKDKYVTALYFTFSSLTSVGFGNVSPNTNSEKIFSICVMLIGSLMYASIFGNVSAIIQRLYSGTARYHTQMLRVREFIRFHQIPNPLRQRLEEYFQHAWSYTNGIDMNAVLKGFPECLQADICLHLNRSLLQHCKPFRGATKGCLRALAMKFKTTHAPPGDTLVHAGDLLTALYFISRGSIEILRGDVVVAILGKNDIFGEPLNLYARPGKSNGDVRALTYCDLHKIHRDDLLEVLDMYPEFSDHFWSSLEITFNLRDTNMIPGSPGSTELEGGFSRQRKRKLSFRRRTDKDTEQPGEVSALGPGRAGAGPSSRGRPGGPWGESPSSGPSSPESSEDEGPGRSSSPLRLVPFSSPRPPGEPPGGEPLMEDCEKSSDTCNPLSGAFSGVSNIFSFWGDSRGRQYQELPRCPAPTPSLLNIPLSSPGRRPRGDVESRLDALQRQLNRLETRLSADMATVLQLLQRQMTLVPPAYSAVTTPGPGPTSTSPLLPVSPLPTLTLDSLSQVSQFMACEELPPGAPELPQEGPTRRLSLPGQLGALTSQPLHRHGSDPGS

EC50 [2]: 0.087 µM
EC50 [3]: > 30 µM
Activity (Cytochrome P450 2C9 [4]): 3.5%
half-life [5]: 1.3 h
IC50 (Cytochrome P450 2D6): > 30 µM
fraction unbound at 4 h [7]: 0.031
Kp [8]: 1
EC50 (Cytochrome P450 2B6): > 50 µM
EC50 [9]: > 30 µM
clearance [11]: 25 mL/min/kg
Papp A→B [13]: 31 ×10⁻⁶ cm/s
IC50 [14]: 1.2 µM
Activity (Cytochrome P450 2C19): 31.2%
Tmax [16]: 0.75 h
EC50 [17]: 0.102 µM
EC50 (Cytochrome P450 3A4 [18]): > 50 µM
fraction unbound at 4 h [19]: 0.054
Emax at 1 h (CYP2B6): ≤ 1%
concentration at 1.5 h [20]: 1800 nM
Activity (Cytochrome P450 3A4 [21]): 43.7%
IC50 (Cytochrome P450 2C9 [22]): > 30 µM
Compound: COc1ccc(CNC(=O)c2sc3nnc(C)c(C)c3c2N)cc1F
IC50 [1]: > 33 µM
minimal effective dose (Rattus norvegicus [6]): 10 mg/kg
Activity (Rattus norvegicus [10]): 41.1%
Activity [12]: Non-Toxic
Activity [15]: Non-Toxic
